According to the NIST ThermoML archive (doi:10.1016/j.tca.2016.06.022):

Experiment: xn = mol fraction of the nth substance listed
Settings: 101 kPa, Liquid, Vibrating tube method

NCCN [ethane-1,2-diamine] + O
Settings	mass density [kg/m3]
274.15 K, x1 = 0.002	999.81
274.15 K, x1 = 0.0033	999.71
274.15 K, x1 = 0.0047	999.62
274.15 K, x1 = 0.0072	999.47
274.15 K, x1 = 0.009	999.38
274.15 K, x1 = 0.0123	999.18
274.15 K, x1 = 0.0222	998.88
274.15 K, x1 = 0.0436	999.22
274.15 K, x1 = 0.0609	1000.11
274.15 K, x1 = 0.0827	1002.02
275.15 K, x1 = 0.002	999.85
275.15 K, x1 = 0.0033	999.74
275.15 K, x1 = 0.0047	999.65
275.15 K, x1 = 0.0072	999.48
275.15 K, x1 = 0.009	999.37
275.15 K, x1 = 0.0123	999.18
275.15 K, x1 = 0.0222	998.82
275.15 K, x1 = 0.0436	999.08
275.15 K, x1 = 0.0609	999.93
275.15 K, x1 = 0.0827	1001.75
276.15 K, x1 = 0.002	999.87
276.15 K, x1 = 0.0033	999.75
276.15 K, x1 = 0.0047	999.66
276.15 K, x1 = 0.0072	999.48
276.15 K, x1 = 0.009	999.37
276.15 K, x1 = 0.0123	999.16
276.15 K, x1 = 0.0222	998.79
276.15 K, x1 = 0.0436	998.93
276.15 K, x1 = 0.0609	999.69
276.15 K, x1 = 0.0827	1001.43
277.15 K, x1 = 0.002	999.87
277.15 K, x1 = 0.0033	999.75
277.15 K, x1 = 0.0047	999.65
277.15 K, x1 = 0.0072	999.47
277.15 K, x1 = 0.009	999.35
277.15 K, x1 = 0.0123	999.12
277.15 K, x1 = 0.0222	998.71
277.15 K, x1 = 0.0436	998.76
277.15 K, x1 = 0.0609	999.54
277.15 K, x1 = 0.0827	1001.13
278.15 K, x1 = 0.002	999.85
278.15 K, x1 = 0.0033	999.73
278.15 K, x1 = 0.0047	999.62
278.15 K, x1 = 0.0072	999.43
278.15 K, x1 = 0.009	999.3
278.15 K, x1 = 0.0123	999.07
278.15 K, x1 = 0.0222	998.62
278.15 K, x1 = 0.0436	998.59
278.15 K, x1 = 0.0609	999.31
278.15 K, x1 = 0.0827	1000.79
278.15 K, x1 = 0.106	1002.72
278.15 K, x1 = 0.1481	1006.44
278.15 K, x1 = 0.2063	1009.32
278.15 K, x1 = 0.2513	1008.93
278.15 K, x1 = 0.3148	1002.73
278.15 K, x1 = 0.3258	1002.11
278.15 K, x1 = 0.3316	1001.85
278.15 K, x1 = 0.341	1001.4
278.15 K, x1 = 0.4038	992.34
278.15 K, x1 = 0.4489	985.23
278.15 K, x1 = 0.4928	977.8
278.15 K, x1 = 0.5468	968.88
278.15 K, x1 = 0.5907	961.76
278.15 K, x1 = 0.6361	954.59
278.15 K, x1 = 0.6843	947.87
278.15 K, x1 = 0.7386	940.37
278.15 K, x1 = 0.7954	933.17
278.15 K, x1 = 0.81	931.24
278.15 K, x1 = 0.8505	926.49
278.15 K, x1 = 0.898	921.18
278.15 K, x1 = 0.9282	917.97
278.15 K, x1 = 0.9584	914.9
278.15 K, x1 = 0.9678	913.98
279.15 K, x1 = 0.002	999.82
279.15 K, x1 = 0.0033	999.7
279.15 K, x1 = 0.0047	999.59
279.15 K, x1 = 0.0072	999.38
279.15 K, x1 = 0.009	999.26
279.15 K, x1 = 0.0123	999.01
279.15 K, x1 = 0.0222	998.54
279.15 K, x1 = 0.0436	998.41
279.15 K, x1 = 0.0609	999.05
279.15 K, x1 = 0.0827	1000.47
280.15 K, x1 = 0.002	999.78
280.15 K, x1 = 0.0033	999.65
280.15 K, x1 = 0.0047	999.54
280.15 K, x1 = 0.0072	999.33
280.15 K, x1 = 0.009	999.2
280.15 K, x1 = 0.0123	998.93
280.15 K, x1 = 0.0222	998.41
280.15 K, x1 = 0.0436	998.21
280.15 K, x1 = 0.0609	998.8
280.15 K, x1 = 0.0827	1000.14
281.15 K, x1 = 0.002	999.72
281.15 K, x1 = 0.0033	999.59
281.15 K, x1 = 0.0047	999.47
281.15 K, x1 = 0.0072	999.25
281.15 K, x1 = 0.009	999.12
281.15 K, x1 = 0.0123	998.84
281.15 K, x1 = 0.0222	998.29
281.15 K, x1 = 0.0436	998.03
281.15 K, x1 = 0.0609	998.53
281.15 K, x1 = 0.0827	999.78
282.15 K, x1 = 0.002	999.65
282.15 K, x1 = 0.0033	999.52
282.15 K, x1 = 0.0047	999.39
282.15 K, x1 = 0.0072	999.17
282.15 K, x1 = 0.009	999.04
282.15 K, x1 = 0.0123	998.74
282.15 K, x1 = 0.0222	998.17
282.15 K, x1 = 0.0436	997.81
282.15 K, x1 = 0.0609	998.25
282.15 K, x1 = 0.0827	999.43
283.15 K, x1 = 0.002	999.56
283.15 K, x1 = 0.0033	999.43
283.15 K, x1 = 0.0047	999.3
283.15 K, x1 = 0.0072	999.07
283.15 K, x1 = 0.009	998.92
283.15 K, x1 = 0.0123	998.62
283.15 K, x1 = 0.0222	998.01
283.15 K, x1 = 0.0436	997.6
283.15 K, x1 = 0.0609	997.98
283.15 K, x1 = 0.0827	999.09
288.15 K, x1 = 0.002	998.94
288.15 K, x1 = 0.0033	998.79
288.15 K, x1 = 0.0047	998.64
288.15 K, x1 = 0.0072	998.38
288.15 K, x1 = 0.009	998.21
288.15 K, x1 = 0.0123	997.87
288.15 K, x1 = 0.0222	997.12
288.15 K, x1 = 0.0436	996.36
288.15 K, x1 = 0.0609	996.47
288.15 K, x1 = 0.0827	997.2
288.15 K, x1 = 0.106	998.37
288.15 K, x1 = 0.1481	1000.83
288.15 K, x1 = 0.2063	1002.48
288.15 K, x1 = 0.2513	1001.08
288.15 K, x1 = 0.3148	995
288.15 K, x1 = 0.3316	993.72
288.15 K, x1 = 0.341	992.78
288.15 K, x1 = 0.4038	983.69
288.15 K, x1 = 0.4489	976.15
288.15 K, x1 = 0.4928	968.71
288.15 K, x1 = 0.5468	959.92
288.15 K, x1 = 0.5907	952.42
